The record followed here is article PMC12040169 (PLOS Biology, 2025).

The nature of this data set: in vitro. The conditions noted are these: human, hela cells, % viability.

With `COCCCn1c(=O)[nH]c2ncc(-c3cccnc3)nc21` [CBK064929], the viability at 28.5 h, 10 µM was found to be 104%. Under `O=C(CN1CCC(Oc2nccnc2OCc2ccc(Cl)c(Cl)c2)CC1)Nc1ccccc1` [CBK153783] stands 110%; under `Cc1[nH]c(=O)[nH]c(=S)c1C(=O)NCc1cccc(Cl)c1C` [CBK115493], 94.6%. In the case of `O=C(Nc1ncnc2c1ccn2C1CC(O)C(CO)O1)c1ccccc1` (stereo not shown) [CBK201289], the viability at 28.5 h, 10 µM worked out at 96.3%.

As to `O=C(NC[C@H]1O[C@@H](CC(=O)N2CCN(c3ccccc3)CC2)[C@H](O)[C@@H]1O)c1ccccc1` [CBK288920], the viability at 28.5 h, 10 µM was 108%. Under `C=CCNC(=O)N1CC[C@H]2CC(=O)N(Cc3ccc4c(c3)OCO4)CC[C@H]2C1` [CBK288794] stands 97.8%; under `C=CCNC(=O)C1CN(C)CC12CCc1ccccc1C(=O)N2` (stereo not shown) [CBK282401], 83%. For `CCN(CC)CCOc1c(C)cccc1Cl` [CBK261950], the viability at 28.5 h, 10 µM worked out at 95.9%.

With `O=C(CCS(=O)(=O)c1ccccc1)N(Cc1cccnc1)c1nc2c(F)cccc2s1` [CBK294422], the viability at 28.5 h, 10 µM is 81.5%.

Regarding `COc1cc(Nc2cncc(-c3ccc(O)cc3)n2)c(Cl)cc1C(=O)NCCCN(C)C` [CBK122651], the viability at 28.5 h, 10 µM came out at 81.1%. Regarding `OC1(c2cccnc2F)CCN(Cc2cccc(F)c2)CC1` [CBK284373], the viability at 28.5 h, 10 µM came out at 85.5%.

Regarding `CC(C)c1ccccc1NC(=O)NCCc1cccs1` [CBK043938], the viability at 28.5 h, 10 µM stood at 97.9%. Regarding `CS(=O)(=O)N1CCCc2cc(-c3csc(N4CCOCC4)n3)ccc21` [CBK305022], the viability at 28.5 h, 10 µM is 84.8%.

As for `Cn1c2c(c(=O)n(C)c1=O)[C@@H]1C(C[C@](O)(CO)[C@H]1O)C1(CCC1)N2` (stereo partly shown) [CBK303264], the viability at 28.5 h, 10 µM is 118%. The result for `COc1ccc(Nc2cc(-c3cccc(NC(C)=O)c3)ncn2)cn1` [CBK037125] reads 95.1%. As to `Cc1ccc(-c2ccc(/C=N\NC(=O)C3C(=O)NCC3c3ccccc3)o2)cc1Cl` (stereo not shown) [CBK262808], the viability at 28.5 h, 10 µM was 98.7%. Take `NC(CC(=O)O)c1ccc(OCc2ccccc2)cc1` (stereo not shown) [CBK286999]: the viability at 28.5 h, 10 µM came to 80.9%. `COc1ccccc1CNC(=O)c1cc(-c2ccccc2)nc2ccccc12` [CBK294458]: the viability at 28.5 h, 10 µM worked out at 104%. As for `COc1nc(N)nc(C/C(=N\NC(=O)c2cccnc2)C2CC2)n1` [CBK019872], the viability at 28.5 h, 10 µM came out at 90.9%. `O=C(Cn1ccccc1=O)Nc1ccc(OCC(F)(F)F)nc1` [CBK304556]: the viability at 28.5 h, 10 µM turned out to be 88.9%. With `CC(=O)N(C)c1nc(-c2ccccc2C)ccc1C(=O)N(C)C` [CBK106350], the viability at 28.5 h, 10 µM was 89%. For `CCNc1nc2c(ncn2C2CC(O)C(CO)O2)c(=O)[nH]1` (stereo not shown) [CBK201189], the viability at 28.5 h, 10 µM was 99.6%.

Take `O=C(c1cccc(F)c1)N1C2CCC1CC(O)(c1cccnc1F)C2` (stereo not shown) [CBK284422]: the viability at 28.5 h, 10 µM turned out to be 104%. In the case of `Cc1ccccc1CNC(=O)CCSc1ccc(Cl)cc1` [CBK264040], the viability at 28.5 h, 10 µM stood at 102%. In the case of `CNC(=O)C1(Cc2ccc(-c3cccc(C)c3)cc2)CCN(C(=O)CC(C)(C)C)CC1` [CBK285923], the viability at 28.5 h, 10 µM was found to be 86.4%.

For `CCc1cc2c(NC(C(=O)O)C(C)C)ncnc2s1` (stereo not shown) [CBK265349], the viability at 28.5 h, 10 µM was found to be 97.7%. On to `Nc1ncc(-c2cccc3cccnc23)nc1NC1CCCCC1` [CBK063613], for which the viability at 28.5 h, 10 µM is 107%.

As for `COc1ccccc1OCCNC1CCc2cc(Cl)ccc2C1` (stereo not shown) [CBK013067C], the viability at 28.5 h, 10 µM is 93.2%. The result for `Cc1ccc(C)n1-c1cccc(C(=O)N2CCn3cnnc3C2)c1` [CBK283646] reads 96.2%; that for `O=C1C=C(OCc2ccccc2)CN1` [CBK020360], 94.4%. Under `O=C(O)C1CC1C(=O)N1CC2(CCCC2)c2c(F)cccc21` (stereo not shown) [CBK306360] stands 112%; under `CC(C)NC(=O)c1sc2ccccc2c1C1CCN(S(=O)(=O)c2ccccc2)C1` (stereo not shown) [CBK285927], 83.1%. As for `CCCCn1c(=O)c(C(=O)Nc2ccccc2S(N)(=O)=O)c(O)c2ccccc21` [CBK262260], the viability at 28.5 h, 10 µM came to 98.6%. The result for `CC(C)OCC(=O)NC1CCCc2nc(N3CCC(CO)CC3)ncc21` (stereo not shown) [CBK307520] reads 94.5%.

For `Cc1cc(Br)cc(C)c1OCC(=O)NNC(=O)Cc1cccc2ccccc12` [CBK267151], the viability at 28.5 h, 10 µM came out at 95.2%. On to `Cc1ccc(C(C)C)c(OCC(=O)Nc2ccc(F)c([N+](=O)[O-])c2)c1` [CBK263771], for which the viability at 28.5 h, 10 µM amounted to 91.7%. The result for `COc1ccc(NC(=O)C2CCCN2c2nc(O)cc(C(F)(F)F)n2)c(OC)c1` (stereo not shown) [CBK003951] reads 94.9%.

In the case of `O=C(CC1CCN(C(=O)CC2CCCCC2)CC1)NCc1ccccc1N1CCCC1` [CBK285962], the viability at 28.5 h, 10 µM amounted to 99.2%. Regarding `CN(C)C(=O)c1cccc(-c2nccnc2NCCO)c1` [CBK036582], the viability at 28.5 h, 10 µM was 90.3%.

On to `O=S(=O)(Nc1nccnc1-c1ccc2c(c1)OCO2)c1ccc(Cl)cc1` [CBK050952], for which the viability at 28.5 h, 10 µM was 92.4%. With `Cc1nn(CC(=O)N2CCCC(C)C2)c(=O)c2cc3ccsc3n12` (stereo not shown) [CBK284041], the viability at 28.5 h, 10 µM is 81.7%. As for `O=C(CN(c1ccc(Cl)cc1)S(=O)(=O)c1ccccc1)Nc1ccc(F)cc1` [CBK264013], the viability at 28.5 h, 10 µM was found to be 90.5%. As to `O=C(O)CC1(O)C(=O)N(Cc2ccccc2)c2ccccc21` (stereo not shown) [CBK286673], the viability at 28.5 h, 10 µM was found to be 104%. For `O=C1CCc2cc(S(=O)(=O)Nc3ccccc3Cc3ccccc3)ccc2N1` [CBK286369], the viability at 28.5 h, 10 µM was 87%. On to `Cc1ccc(C)c2nc3c(cc12)CN(C1CC1)C(=O)CO3` [CBK282858], for which the viability at 28.5 h, 10 µM came to 94.8%. Under `COc1ccc(-n2c(=O)[nH]cc(C(=O)N3CCc4ccccc43)c2=O)cc1OC` [CBK287555] stands 105%; under `Cc1ccc2c(O)c(C(=O)NCc3cccs3)cnc2c1` [CBK159997], 78.2%; under `O=C(Nc1cccc(Cl)c1)N1CCCC(c2nc(-c3ccccc3)c3ccccn23)C1` (stereo not shown) [CBK047233], 90.4%. Under `CCCNc1nc(-c2ccc(F)c(F)c2)cn2ccnc12` [CBK066573] stands 94.8%; under `C=CCNC(=O)CSc1nc(O)cc(=O)[nH]1` [CBK073298], 104%. Under `CCOC(=O)c1ncoc1-c1ccc(Cl)cc1Cl` [CBK020578] stands 90.2%; under `CC(C(=O)O)c1cc(C(=O)c2ccccc2)sc1-c1ccccc1` (stereo not shown) [CBK260968], 91.3%. Turning to `O=C(Nc1ccc(I)cc1C(=O)NCCN1CCOCC1)c1ccccc1Cl` [CBK266245], the viability at 28.5 h, 10 µM was found to be 101%. `Cc1cc(OCCCC(=O)Nc2cccc([N+](=O)[O-])c2)cc(C)c1Cl` [CBK267978]: the viability at 28.5 h, 10 µM came to 97.8%. On to `CCn1cc(C(=O)O)c(=O)c2cnc(N3CCN(C(=S)NC(=O)c4cccs4)CC3)nc21` [CBK265753], for which the viability at 28.5 h, 10 µM was 95.7%. For the compound `Cc1nonc1CC(=O)N[C@H]1C2CCCCC2[C@@H]1c1ccccc1` (stereo partly shown) [CBK285126], the viability at 28.5 h, 10 µM amounted to 102%.

With `CC(C)(C)c1cc(CN(Cc2cc(C(C)(C)C)c(O)c(C(C)(C)C)c2)/N=C\c2ccccc2O)cc(C(C)(C)C)c1O` [CBK261990], the viability at 28.5 h, 10 µM was 101%. On to `O=C(O)c1cc(S(=O)(=O)Nc2ccc(O)cc2)c(Cl)cc1Cl` [CBK113231], for which the viability at 28.5 h, 10 µM worked out at 86.8%. As for `CCc1ccc(C(O)CNC2CCN(CCOC)CC2)cc1` (stereo not shown) [CBK304259], the viability at 28.5 h, 10 µM was 104%. For the compound `Cc1nc2c(C(=O)NCC(F)(F)F)cnn2c(C)c1Cc1cccc(F)c1` [CBK162117], the viability at 28.5 h, 10 µM is 112%. Under `Cc1cnc(CNS(=O)(=O)c2cnn(-c3ccccc3)c2C)cn1` [CBK062335] stands 96.5%; under `O=C(O)c1cc(S(=O)(=O)Nc2cc(-c3ccco3)n[nH]2)c(F)cc1Cl` [CBK067292], 92.6%; under `CCN(CC)C(=O)C1CCCN(C(=O)NCCN2CCOCC2)C1` (stereo not shown) [CBK156128], 96.1%. As for `CN(C)c1nc(N)nc(COc2ccccc2F)n1` [CBK288236], the viability at 28.5 h, 10 µM was found to be 105%. Regarding `COc1ccc(NC(=O)C2CCCN2c2nc(O)cc(C(F)(F)F)n2)cc1` (stereo not shown) [CBK003704], the viability at 28.5 h, 10 µM came to 77%. Take `OC(CSc1ccccc1)CN1CCN(c2nc(-c3ccccc3)ns2)CC1` (stereo not shown) [CBK074677C]: the viability at 28.5 h, 10 µM came to 110%. Consider `CC(=O)c1ccc(CN2CCCN(S(=O)(=O)c3ccc(C(=O)c4ccccc4)cc3)CC2)cc1` [CBK062764], for which the viability at 28.5 h, 10 µM stood at 109%. Consider `COc1ccc(-c2cc3cccnc3n2CC(=O)NC(C)(C)C)cc1` [CBK285381], for which the viability at 28.5 h, 10 µM turned out to be 115%. The result for `CCc1nnc(Sc2ccc(C=O)cc2[N+](=O)[O-])[nH]1` [CBK268876] reads 95.4%; that for `CCOC(=O)N/N=C(/C)c1ccc(Br)s1` [CBK019480], 93.5%; that for `COc1cc(CCN2CCC(c3nc(-c4ccccc4)c4ccccn34)CC2)cc(OC)c1OC` [CBK035278], 91%. Under `O=C(Cc1cc(Cl)ccc1C(F)(F)F)Nc1ccc2ncccc2c1` [CBK159802] stands 94.7%.

Take `CCCc1oc(C(=O)O)cc1CN1CCOCC1` [CBK267984C]: the viability at 28.5 h, 10 µM came to 106%. On to `O=C(O)c1cccc(NC(=O)c2ccc3c(c2)C(=O)N(Cc2cccnc2)C3=O)c1` [CBK265523], for which the viability at 28.5 h, 10 µM was determined as 88.5%. As for `Nc1cc(C(=O)c2ccc(Br)c(N)c2)ccc1Cl` [CBK269708], the viability at 28.5 h, 10 µM was found to be 86.6%. With `Cc1nc(CC(=O)N2CCC[C@@H]3NC(=O)c4ccccc4OCCCCC[C@@H]32)cs1` [CBK292113], the viability at 28.5 h, 10 µM amounted to 102%.

With `CC(C)[C@@H](CO)Nc1nc(-c2cccnc2)cn2ccnc12` [CBK037539], the viability at 28.5 h, 10 µM came out at 94%. The result for `CC(O)CNCc1ccccc1OCc1ccccc1F` (stereo not shown) [CBK270278C] reads 93.2%. As to `C[C@]12CN(Cc3ccccc3)C[C@H]1NC(=O)c1ccccc1C2=O` [CBK284703], the viability at 28.5 h, 10 µM came out at 96.5%.

For orientation: viability means a read-out of living cells in per cent, often relative to untreated cells.
